The values that follow come from patent publication US9643971B2 (GALLEON PHARMACEUTICALS, INC., priority 2013, dated 2017).

Series [1] can be described thus: In vitro metabolic stability in human liver microsomes (HLM). As to conditions: both, human, liver microsomes. (Liver microsomes are a subcellular fraction often used to study metabolism.)
A short description of series [2]: in vitro. As to conditions: male, rat, microsomes.
Series [3] relates to anesthetized rat. The experiment in a line: Anesthetized rat spirometry screening assay. The following applies: 2 minute AUC of minute volume increase vs. comparator N-[2,6-di-(n-propylamino)-[1,3]pyrimidin-4-yl]-N,O-dimethyl-hydroxylamine. In kind it is in vivo. The source says: Effect of Compounds of the Invention on Respiratory Rate (RR), Tidal Volume (VT), and the Product Minute Volume Using an Anesthetized Rat Spirometry Screening Assay
Anesthetized rats provide a quick method of screening compounds for respiratory and cardiovascular activity. In contrast to the conscious rat model, this model offers an experimental set up with less variation in the baseline cardiovascular and respiratory measures. Compounds screened in this assay may be examined in a conscious rat model.
Rats were initially anesthetized with 3% isoflurane (inhaled) and femoral artery and vein cannulas were surgically inserted. Once cannulated, the rats were transitioned to urethane anesthesia (1.5 g/kg; i.v.) and a tracheal cut-down was performed. After placing the tracheal cannula, it was connected to a pneumotachometer to record respiratory airflow from which respiratory rate (RR), tidal volume (VT), and their product minute volume were derived. After the surgical preparation was complete, animals were allowed to stabilize for 30 minutes while respiratory rate, tidal volume, minute volume, blood pressure and heart rate were recorded continuously. Arterial blood gases (ABG) were obtained from arterial blood collected from the femoral artery. ABG measurements were taken before and 6 minutes after vehicle and each dose of compound administered. Compounds being screened were administered via bolus injections through the venous cannula followed by a saline flush (total time of administration is approximately 30 seconds), and the animal was monitored for at least 6 minutes for changes in cardiovascular efforts. Compounds were prepared in formulations identified to ensure optimal solubility. As such, vehicle controls were matched for the formulation of each compound tested. Dosing of the compound being screened was 0.1 and 0.3 mg/kg. The next dose was not administered until all cardiovascular and respiratory measures had returned to baseline levels. The positive control compounds used were N-[4,6-di-(n-propylamino)-[1,3,5]triazin-2-yl]-N,O-dimethyl-hydroxylamine or N-[2,6-di-(n-propylamino)-[1,3]pyrimidin-4-yl]-N,O-dimethyl-hydroxylamine (both administered at the end of each screening experiment (0.3 mg/kg dose) to validate the experiment and also to serve as a measure with which the compound being screened could be compared.
Data were analyzed by collecting cardiovascular and respiratory data in 30 second averages (BINs). Data were plotted 2 minutes before challenge and then 6 minutes after challenge.

What is called half-life is how long it takes for the measured level to halve. A higher half-life goes with slow decline. Consider `CCCNc1nc(NCC2CC2)nc2c(NCCC)nc(NCC3CC3)nc12` [Compound 140a, N^2,N^6-Bis-cyclopropylmethyl-N^4,N^8-di-n-propyl-pyrimido[5,4-d]pyrimidine-2,4,6,8-tetraamine], for which the half-life at 5 μM was 1.18 h in series [1] and 0.833 h in series [2].
Take `CCCNc1nc(N(C)OC)nc2c(NCCC)nc(NC)nc12.Cl` [Compound 24a, O,N-Dimethyl-N-(6-methylamino-4,8-bis-n-propylamino-pyrimido[5,4-d]pyrimidin-2-yl)-hydroxylamine hydrochloride]: the half-life at 5 μM was determined as 1.98 h in series [1] and 2.7 h in series [2]. In addition, the “AUC MV Inc (2 min) (ratio vs. std*)” value in series [3] was determined as 0.43 ratio vs. std.
On the same counts, the results for `CCCNc1nc(N2CCCC2)nc2c(NCCC)nc(NC)nc12` [Compound 45a, N^2-Methyl-N^4,N^8-di-n-propyl-6-pyrrolidin-1-yl-pyrimido[5,4-d]pyrimidine-2,4,8-triamine] are greater than 8.33 h, greater than 8.33 h and 0.41 ratio vs. std.
On the same counts, the results for `CCCNc1nc(N(C)OC)nc2c(NCCC)nc(Cl)nc12.Cl` [Compound 17a, N-(6-Chloro-4,8-bis-n-propylamino-pyrimido[5,4-d]pyrimidin-2-yl)-O,N-dimethyl-hydroxylamine hydrochloride] are 0.483 h, 0.417 h and 0.05 ratio vs. std.
As for `CCCNc1nc(NC)c2nc(Cl)nc(NC)c2n1` [Compound 54, 6-Chloro-N^4,N^8-dimethyl-N^2-n-propyl-pyrimido[5,4-d]pyrimidine-2,4,8-triamine], the half-life at 5 μM worked out at 1.37 h in series [1] and 0.667 h in series [2]. Moreover, the “AUC MV Inc (2 min) (ratio vs. std*)” value in series [3] is listed as 0.09 ratio vs. std.
With `CNc1nc(NC)c2nc(NC)nc(NC)c2n1.Cl` [Compound 79a, N^2,N^4,N^6,N^8-Tetramethyl-pyrimido[5,4-d]pyrimidine-2,4,6,8-tetraamine hydrochloride], the half-life at 5 μM is greater than 8.33 h in series [1] and 6.47 h in series [2]. In series [3], the “AUC MV Inc (2 min) (ratio vs. std*)” value was 0.00 ratio vs. std.
`CCCNc1nc(NC(C)C)nc2c(NCCC)nc(NC(C)C)nc12.Cl` [Compound 10a, N^2,N^6-Di-i-propyl-N^4,N^8-di-n-propyl-pyrimido[5,4-d]pyrimidine-2,4,6,8-tetraamine hydrochloride]: the half-life at 5 μM in series [1] stood at 7.7 h; in series [2] it was 2.7 h. For the same compound, in series [3], the “AUC MV Inc (2 min) (ratio vs. std*)” value is 0.07 ratio vs. std.
On the same counts, the results for `CCCNc1nc(N2CCC(OC)CC2)nc2c(NCCC)nc(NC)nc12` [Compound 47a, N^2-Methyl-N^4,N^8-di-n-propyl-6-(4-methoxy-piperidin-1-yl)-pyrimido[5,4-d]pyrimidine-2,4,8-triamine] are 1.83 h, 1.77 h and 0.00 ratio vs. std.
On the same counts, the results for `CCNc1nc(NC)c2nc(NCC)nc(NC)c2n1.Cl` [Compound 81a, N^2,N^6-Diethyl-N^4,N^8-dimethyl-pyrimido[5,4-d]pyrimidine-2,4,6,8-tetraamine hydrochloride] are 3.3 h, 4.57 h and 0.00 ratio vs. std.
On the same counts, the results for `CCCNc1nc(OC)nc2c(NCCC)nc(NC)nc12` [Compound 120a, 6-Methoxy-N^2-methyl-N^4,N^8-di-n-propyl-pyrimido[5,4-d]pyrimidine-2,4,8-triamine] are 1.9 h, 1.37 h and 0.36 ratio vs. std.
Consider `CCCNc1nc(N(CC)CC)nc2c(NCCC)nc(NCC)nc12` [Compound 152a, N^2,N^2,N^6-Triethyl-N^4,N^8-di-n-propyl-pyrimido[5,4-d]pyrimidine-2,4,6,8-tetraamine], for which the “AUC MV Inc (2 min) (ratio vs. std*)” value in series [3] is 0.00 ratio vs. std.
